{
  "source": "patent US20170304288A1",
  "about": "“Formulations of Methionine Aminopeptidase Inhibitors for Treating Infectious Diseases” (Texas Southern University, priority 2013, published 2017)",
  "key": {"E. faecalis OG1RF": {"test_system": "E. faecalis OG1RF", "assay": "Liquid-based C. elegans infection model, survival", "type": "in vivo, Enterococcus faecalis"}, "[1]": {"assay": "Stability of co-solvent formulations at storage temperatures", "type": "physicochemical", "details": "stored at −20° C., 4° C. and 25° C.; Day 3, 7, 14 and 30", "experimental": "The stability of the optimal co-solvent formulations was investigated at various storage temperatures. Briefly, aliquots of the optimal co-solvent formulations were stored at different temperatures (−20° C., 4° C. and 25° C.) and analyzed using LC/MS/MS on Day 3, 7, 14 and 30 to determine the amount of compound 5 remaining. The experiment was conducted in triplicates. […] The optimal co-solvent formulations were applied to the pharmacokinetic study of compound 5 in rats (Table 18)."}, "[2]": {"assay": "Stability in plasma and urine samples for LC-MS/MS analysis", "type": "in vitro ADME, rat", "experimental": "The short-term (bench-top) stability of compound 5 in plasma and urine samples was evaluated by analyzing three sets each of freshly prepared plasma and urine samples containing compound 5 and placed them on the bench-top for 2, 4, and 6 h, respectively or at −80° C. for 14 days. All the samples were compared with freshly prepared samples of the same concentration.\nThe stability of compound 5 in processed samples (on-instrument or auto-sampler stability) was also evaluated by comparing freshly prepared plasma and urine QC samples to similar samples placed on the auto-sampler for 2, 4, and 6 h respectively. One set of the plasma and urine QC samples was extracted with acetonitrile containing IS, and the other set with pure acetonitrile without IS."}},
  "data": [
    {"smiles": "Oc1c(Br)cc(Cl)c2cccnc12", "note": "[Compound 5, 7-bromo-5-chloroquinolin-8-ol]", "values": [
      {"measurement": "survival of the nematodes at Maximum protective concentration", "setting": "E. faecalis OG1RF; 4×10^−4 μg/mL", "value": "~80", "unit": "%"},
      {"measurement": "survival of infected animals compared to tetracycline", "setting": "E. faecalis OG1RF; 4×10^−5 μg/mL to 4×10^−4 μg/mL", "value": "survived just as well, or better, than animals treated with tetracycline"},
      {"measurement": "MPC (Minimum Protective Concentration) OG1RF", "setting": "E. faecalis OG1RF; C. elegans", "value": "4e-11", "unit": "µg/mL"},
      {"measurement": "MmaxPC (Maximum Protective Concentration) OG1RF", "setting": "E. faecalis OG1RF; C. elegans", "value": 0.0004, "unit": "µg/mL"},
      {"measurement": "stability in the optimal co-solvent formulations", "setting": "[1]", "value": "stable in the co-solvent formulations for up to one month"},
      {"measurement": "Processed sample or Auto-sampler stability No IS", "setting": "[2]; Plasma, 2 hr", "value": "97.8 ± 1.11"},
      {"measurement": "Processed sample or Auto-sampler stability With IS", "setting": "[2]; Plasma, 2 hr", "value": "95.9 ± 1.87"},
      {"measurement": "Short-term Stability", "setting": "[2]; Plasma, 2 hr bench-top", "value": "91.6 ± 4.06"},
      {"measurement": "Processed sample or Auto-sampler stability No IS", "setting": "[2]; Plasma, 4 hr", "value": "97.1 ± 5.42"},
      {"measurement": "Processed sample or Auto-sampler stability With IS", "setting": "[2]; Plasma, 4 hr", "value": "94.7 ± 4.20"},
      {"measurement": "Short-term Stability", "setting": "[2]; Plasma, 4 hr bench-top", "value": "95.1 ± 3.24"},
      {"measurement": "Processed sample or Auto-sampler stability No IS", "setting": "[2]; Plasma, 6 hr", "value": "95.5 ± 6.69"},
      {"measurement": "Processed sample or Auto-sampler stability With IS", "setting": "[2]; Plasma, 6 hr", "value": "97.3 ± 5.55"},
      {"measurement": "Short-term Stability", "setting": "[2]; Plasma, 6 hr bench-top", "value": "93.7 ± 1.17"},
      {"measurement": "Short-term Stability", "setting": "[2]; Plasma, 14 days at −80° C.", "value": "91.3 ± 5.45"},
      {"measurement": "Processed sample or Auto-sampler stability No IS", "setting": "[2]; Urine, 2 hr", "value": "92.3 ± 1.32"},
      {"measurement": "Processed sample or Auto-sampler stability With IS", "setting": "[2]; Urine, 2 hr", "value": "102.1 ± 1.35"},
      {"measurement": "Short-term Stability", "setting": "[2]; Urine, 2 hr bench-top", "value": "94.4 ± 1.83"},
      {"measurement": "Processed sample or Auto-sampler stability No IS", "setting": "[2]; Urine, 4 hr", "value": "92.8 ± 2.31"},
      {"measurement": "Processed sample or Auto-sampler stability With IS", "setting": "[2]; Urine, 4 hr", "value": "99.5 ± 1.89"},
      {"measurement": "Short-term Stability", "setting": "[2]; Urine, 4 hr bench-top", "value": "93.2 ± 4.10"},
      {"measurement": "Processed sample or Auto-sampler stability No IS", "setting": "[2]; Urine, 6 hr", "value": "94.2 ± 1.59"},
      {"measurement": "Processed sample or Auto-sampler stability With IS", "setting": "[2]; Urine, 6 hr", "value": "103.2 ± 2.33"},
      {"measurement": "Short-term Stability", "setting": "[2]; Urine, 6 hr bench-top", "value": "95.6 ± 1.44"},
      {"measurement": "Short-term Stability", "setting": "[2]; Urine, 14 days at −80° C.", "value": "101.6 ± 4.29"}
    ]}
  ]
}
